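Briefly, cells in 96-well plates were exposed to five compound concentrations for 48 h, and endpoints were estimated by linear interpolation. GI50 is the concentration that inhibits growth by half.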 The source made the active and inactive calls. No stated cut-off is given here; in the data, active = GI50 up to about 1.1 µM and inactive = higher. Bounds are passed on as bounds.

The results in this text go back to ChEMBL document CHEMBL1201862, “PubChem BioAssay data set” (2004).

Some test systems named below: MDA-N; SK-MEL-5; SN12C; MDA-MB-231; KM12; PC-3; SK-MEL-2; U-251; NCI-H226; NCI-H23; SK-MEL-28; K562; DU-145; MOLT-4; SF-539; EKVX; HCC 2998; MCF7; ACHN; SR.
Common to all, as to assay: NCI-60 cell line screen, 48 h

Take `O=S(=O)(O)c1cc(S(=O)(=O)O)c2c(/N=N/c3ccccc3)c(O)ccc2c1`: the GI50 in the experiment on MDA-N, in the experiment on SK-MEL-5, with SN12C, in the experiment with MDA-MB-231, in the experiment on KM12 and with PC-3 was > 100 µM (inactive) throughout. Further, the GI50 with SK-MEL-2, with U-251, with NCI-H226, with NCI-H23, in the experiment with SK-MEL-28 and in the experiment with K562 was > 100 µM (inactive) in each case. For the same compound, the GI50 in the experiment on DU-145 and with MOLT-4 was > 100 µM (inactive) throughout.
On to `CCCCCCCCSC1=C(Cl)C(=O)C(OC)=C(OC)C1=O`, for which the GI50 in the experiment on SF-539 is 14.2 µM (inactive); with MDA-N, 3.82 µM (inactive); in the experiment with SK-MEL-5, 4.74 µM (inactive); with SN12C, 5.09 µM (inactive); in the experiment on EKVX, 10.9 µM (inactive); in the experiment on MDA-MB-231 it was 12.4 µM (inactive). Besides, the GI50 is 7.53 µM (inactive) in the experiment with KM12; 14.2 µM (inactive) in the experiment on PC-3; 15.2 µM (inactive) with HCC 2998; 15.4 µM (inactive) with SK-MEL-2; 10.5 µM (inactive) in the experiment with U-251; 3.94 µM (inactive) in the experiment on MCF7. Further, the GI50 in the experiment with NCI-H226 is 12.4 µM (inactive); in the experiment on NCI-H23, 13 µM (inactive); with K562 it was 9.71 µM (inactive); in the experiment on DU-145, 15.1 µM (inactive); in the experiment with ACHN it was 10 µM (inactive); with MOLT-4, 3.12 µM (inactive).
Turning to `COc1ccccc1C(=O)Nc1ccc(Cl)c(C(=O)OC(C)C)c1`, the GI50 with SF-539 was > 67.3 µM (inactive); in the experiment with MDA-N, 31.1 µM (inactive); in the experiment on SK-MEL-5, 31.8 µM (inactive); with SN12C, 52.2 µM (inactive); with EKVX, 39.9 µM (inactive); in the experiment on MDA-MB-231 it was > 100 µM (inactive). In addition, the GI50 was 25.9 µM (inactive) in the experiment with KM12; 83.2 µM (inactive) with PC-3; > 63.7 µM (inactive) in the experiment on HCC 2998; 31.8 µM (inactive) in the experiment on SK-MEL-2; 43 µM (inactive) with U-251; 42 µM (inactive) in the experiment with MCF7. Besides, the GI50 in the experiment with NCI-H226 was 47.4 µM (inactive); with NCI-H23 it was 13.5 µM (inactive); with SK-MEL-28, 36.2 µM (inactive); in the experiment on K562, 28.4 µM (inactive); in the experiment on DU-145, 49.2 µM (inactive); with ACHN, 16 µM (inactive). The GI50 in the experiment with MOLT-4 is > 45.8 µM (inactive).
Turning to `NCCCC[C@H](N)C(=O)Nc1ccc(-c2nc3ccccc3s2)cc1Cl`, the GI50 in the experiment on MDA-N is 4.46 µM (inactive); in the experiment with SK-MEL-5, 12.5 µM (inactive); with SN12C, 14.6 µM (inactive); in the experiment with EKVX, 5.6 µM (inactive); in the experiment with MDA-MB-231, 11.6 µM (inactive); with KM12, 2.97 µM (inactive). The GI50 with PC-3 was 14.9 µM (inactive); in the experiment with HCC 2998, 0.681 µM (active); in the experiment with SR, 2.36 µM (inactive); in the experiment with SK-MEL-2, 16.8 µM (inactive); with U-251, 2.65 µM (inactive); in the experiment with MCF7, < 0.034 µM (active). The GI50 was 7.89 µM (inactive) with SK-MEL-28; 2.74 µM (inactive) with K562; 6.78 µM (inactive) with DU-145; 13.4 µM (inactive) in the experiment on ACHN; 3 µM (inactive) in the experiment with MOLT-4.
With `OCC1OC(n2nc(-c3ccccc3)nc2-c2cnccn2)C(O)C(O)C1O` (configuration not stated), the GI50 in the experiment with SF-539, in the experiment with MDA-N, in the experiment on SK-MEL-5, in the experiment with SN12C, with MDA-MB-231 and in the experiment on KM12 was > 100 µM (inactive) each time. The GI50 in the experiment with PC-3, with HCC 2998, with U-251, in the experiment on MCF7, in the experiment on NCI-H23 and in the experiment with SK-MEL-28 was > 100 µM (inactive) throughout. Also, the GI50 in the experiment with K562, with DU-145 and with MOLT-4 was > 100 µM (inactive) in each case.
For `OC1(c2ccc(Cl)cc2)c2c(ccc3c2OCO3)C2=NCCN21` (configuration not stated), the GI50 in the experiment on SF-539 is 36.1 µM (inactive); in the experiment on MDA-N it was 28.6 µM (inactive); in the experiment on SK-MEL-5, 17.2 µM (inactive); in the experiment with SN12C, 53.7 µM (inactive); in the experiment with EKVX, 75 µM (inactive); in the experiment with MDA-MB-231, 28.4 µM (inactive). Moreover, the GI50 is 19.6 µM (inactive) with KM12; 42.7 µM (inactive) in the experiment with PC-3; 21.5 µM (inactive) with SR; 21.2 µM (inactive) with SK-MEL-2; 44.9 µM (inactive) in the experiment on U-251; 33.7 µM (inactive) in the experiment with MCF7. The GI50 is 63 µM (inactive) in the experiment with NCI-H23; 17.9 µM (inactive) in the experiment on SK-MEL-28; 26.2 µM (inactive) with K562; 97.7 µM (inactive) in the experiment with DU-145; 38 µM (inactive) in the experiment with ACHN; 40.1 µM (inactive) in the experiment with MOLT-4.
In the case of `CCOC(=O)c1c(-c2ccc(Br)cc2)ccn1C`, the GI50 with SF-539, in the experiment with MDA-N, in the experiment with SK-MEL-5, in the experiment with SN12C, in the experiment with EKVX and in the experiment with MDA-MB-231 was > 10 µM (inactive) in each case. In addition, the GI50 in the experiment on KM12, in the experiment on PC-3, in the experiment on HCC 2998, in the experiment with SK-MEL-2, with U-251 and in the experiment on MCF7 was > 10 µM (inactive) each time. In addition, the GI50 with NCI-H226, with NCI-H23, with SK-MEL-28, in the experiment on K562, in the experiment on DU-145 and in the experiment with ACHN was > 10 µM (inactive) in each case. Also, the GI50 in the experiment with MOLT-4 is > 10 µM (inactive).
Consider `COc1ccc(C2=C(OC(=O)N(C)C)c3cccn3-c3cc(Cl)ccc3S2)cc1`, for which the GI50 in the experiment with MDA-N, in the experiment with SK-MEL-5, in the experiment with SN12C, in the experiment on EKVX, with MDA-MB-231 and with KM12 was > 10 µM (inactive) each time. The GI50 in the experiment on PC-3 was 5.64 µM (inactive); in the experiment on HCC 2998, > 10 µM (inactive); in the experiment with SR it was 6.38 µM (inactive); in the experiment with MCF7 it was 8.51 µM (inactive); with NCI-H23 it was > 10 µM (inactive); in the experiment with SK-MEL-28, > 10 µM (inactive). In addition, the figures for the GI50 in the experiment with K562, with DU-145 and in the experiment with MOLT-4 were 8.91 µM (inactive), > 10 µM (inactive) and 7.89 µM (inactive), respectively.
On to `O=S1(=O)OCCOS(=O)(=O)C1C1c2ccccc2-c2ccccc21`, for which the GI50 was 22.8 µM (inactive) in the experiment with SF-539; 36.7 µM (inactive) with MDA-N; 28.7 µM (inactive) in the experiment on SK-MEL-5; 48.6 µM (inactive) in the experiment on SN12C; 42.8 µM (inactive) in the experiment with EKVX; > 100 µM (inactive) in the experiment with MDA-MB-231. Also, the GI50 was 41.5 µM (inactive) in the experiment with KM12; 90.4 µM (inactive) in the experiment on PC-3; 29 µM (inactive) in the experiment with HCC 2998; 70.3 µM (inactive) in the experiment on SK-MEL-2; 20.7 µM (inactive) in the experiment with U-251; 39 µM (inactive) in the experiment on MCF7. In addition, the GI50 with NCI-H226 was 26 µM (inactive); in the experiment with NCI-H23, 28.7 µM (inactive); in the experiment on SK-MEL-28, 67.6 µM (inactive); in the experiment with K562 it was 31.3 µM (inactive); with DU-145, 37.3 µM (inactive); with ACHN it was 27.2 µM (inactive). Moreover, the GI50 in the experiment on MOLT-4 was 15.6 µM (inactive).
With `C=CCOC1=C(OC(C)=O)C(C2COC(C)(C)O2)OC1=O` (configuration not stated), the GI50 with SF-539 was 33.2 µM (inactive); in the experiment with MDA-N it was 29.7 µM (inactive); with SK-MEL-5, 16.9 µM (inactive); with SN12C it was 24.5 µM (inactive); in the experiment with EKVX, 20.1 µM (inactive); in the experiment with MDA-MB-231 it was 17.1 µM (inactive). The GI50 in the experiment with KM12 was 20.7 µM (inactive); in the experiment on PC-3 it was 70 µM (inactive); in the experiment with HCC 2998, 38.2 µM (inactive); in the experiment on SK-MEL-2, 35.6 µM (inactive); with U-251, 26.5 µM (inactive); in the experiment on MCF7, 16.7 µM (inactive). The GI50 in the experiment with NCI-H226 is 95.3 µM (inactive); with NCI-H23, 17.8 µM (inactive); in the experiment on SK-MEL-28, 22.2 µM (inactive); in the experiment with K562, 18 µM (inactive); in the experiment on DU-145, 36.6 µM (inactive); in the experiment on ACHN, 17.9 µM (inactive). Moreover, the GI50 with MOLT-4 is 21.6 µM (inactive).
In the case of `O=C(N/C(=C\c1ccccc1)C1Nc2ccccc2C(=O)O1)c1ccccc1` (configuration not stated), the GI50 in the experiment on SF-539 was 20.2 µM (inactive); in the experiment on MDA-N, 23.7 µM (inactive); with SK-MEL-5, 19.6 µM (inactive); in the experiment on SN12C it was 28.2 µM (inactive); in the experiment on EKVX, > 100 µM (inactive); in the experiment with MDA-MB-231, 41.3 µM (inactive). The GI50 with KM12 is 15.8 µM (inactive); in the experiment with PC-3, > 100 µM (inactive); in the experiment on HCC 2998, 19.8 µM (inactive); with SK-MEL-2, 22.5 µM (inactive); in the experiment on U-251, 22.4 µM (inactive); in the experiment with MCF7, 45.8 µM (inactive). For the same compound, the GI50 is 25.6 µM (inactive) with NCI-H226; 37.5 µM (inactive) in the experiment on NCI-H23; 23.7 µM (inactive) with SK-MEL-28; 21.5 µM (inactive) in the experiment with K562; 54.1 µM (inactive) in the experiment with DU-145; 39.5 µM (inactive) in the experiment on ACHN. The GI50 in the experiment with MOLT-4 is 18.7 µM (inactive).
